Results published in US11229208B2, “Pesticidally active bi- or tricyclic heterocycles with sulfur containing substituents” (priority 2013, dated 2022).
Values joined by “and” are separate entries in the source; they are usually repeats but may differ in a detail not shown here. Identical values can stand only once. Like-named read-outs stand apart in the source and are kept apart here.

Key:
[1] = system: Myzus persicae (Green Peach Aphid); test: Myzus persicae, sprayed sunflower leaf discs, mixed-age population; assay type: in vivo; conditions: foliar, 144 h, application rate 200 ppm, 6 days after infestation
Procedure: Example B5: Myzus persicae (Green Peach Aphid)
Sunflower leaf discs were placed on agar in a 24-well microtiter plate and sprayed with aqueous test solutions prepared from 10,000 ppm DMSO stock solutions. After drying, the leaf discs were infested with an aphid population of mixed ages. The samples were assessed for mortality 6 days after infestation.

[2] = system: Myzus persicae (Green Peach Aphid); test: Myzus persicae systemic test, roots of infested pea seedlings in test solution; assay type: in vivo; conditions: 144 h, test rate 24 ppm, 6 days after placing seedlings in test solutions
Procedure: Example B6: Myzus persicae (Green Peach Aphid)
Roots of pea seedlings infested with an aphid population of mixed ages were placed directly in the aqueous test solutions prepared from 10,000 DMSO stock solutions. The samples were assessed for mortality 6 days after placing seedlings in test solutions.

[3] = system: Myzus persicae (Green Peach Aphid); test: Myzus persicae, sucrose solution feeding through Parafilm; assay type: in vivo; conditions: 120 h, test rate 12 ppm, 5 days after infestation
Procedure: Example B7: Myzus persicae (Green Peach Aphid)
Test compounds from 10,000 ppm DMSO stock solutions were applied by pipette into 24-well microtiter plates and mixed with sucrose solution. The plates were closed with a stretched Parafilm. A plastic stencil with 24 holes was placed onto the plate and infested pea seedlings were placed directly on the Parafilm. The infested plate was closed with a gel blotting paper and another plastic stencil and then turned upside down. The samples were assessed for mortality 5 days after infestation.

[4] = system: Spodoptera littoralis (Egyptian Cotton Leaf Worm); test: Spodoptera littoralis, sprayed cotton leaf discs, L1 larvae; assay type: in vivo; conditions: foliar, 72 h, read-out: mortality (control)
Procedure: Example B2: Spodoptera littoralis (Egyptian Cotton Leaf Worm)
Cotton leaf discs were placed on agar in 24-well microtiter plates and sprayed with aqueous test solutions prepared from 10,000 ppm DMSO stock solutions. After drying the leaf discs were infested with five L1 larvae. The samples were assessed for mortality 3 days after infestation.

[5] = system: Diabrotica balteata (Corn Root Worm); test: Diabrotica balteata, treated artificial diet, L2 larvae; assay type: in vivo; conditions: 120 h, read-out: effect in at least one of the two categories (mortality or growth inhibition)
Procedure: Example B4: Diabrotica balteata (Corn Root Worm)
24-well microtiter plates with artificial diet were treated with aqueous test solutions prepared from 10,000 ppm DMSO stock solutions by pipetting. After drying, the plates were infested with L2 larvae (6 to 10 per well). The samples were assessed for mortality and growth inhibition in comparison to untreated samples 5 days after infestation.
The following compounds gave an effect of at least 80% in at least one of the two categories (mortality or growth inhibition) at an application rate of 200 ppm: […]

[6] = system: Tetranychus urticae (Two-Spotted Spider Mite); test: Tetranychus urticae, sprayed bean leaf discs, mixed-age mite population; assay type: in vivo; conditions: foliar, 192 h, read-out: mortality on mixed population (mobile stages)
Procedure: Example B11: Tetranychus urticae (Two-Spotted Spider Mite)
Bean leaf discs on agar in 24-well microtiter plates were sprayed with aqueous test solutions prepared from 10,000 ppm DMSO stock solutions. After drying the leaf discs were infested with a mite population of mixed ages. The samples were assessed for mortality on mixed population (mobile stages) 8 days after infestation.

[7] = system: Bemisia tabaci (Cotton White Fly); test: Bemisia tabaci, sprayed cotton leaf discs, adult white flies; assay type: in vivo; conditions: foliar, 144 h, application rate 200 ppm, 6 days after incubation
Procedure: Example B10: Bemisia tabaci (Cotton White Fly)
Cotton leaf discs were placed on agar in 24-well microtiter plates and sprayed with aqueous test solutions prepared from 10,000 ppm DMSO stock solutions. After drying the leaf discs were infested with adult white flies. The samples were checked for mortality 6 days after incubation.

[8] = system: Plutella xylostella (Diamond Back Moth); test: Plutella xylostella, treated artificial diet, L2 larvae; assay type: in vivo; conditions: 120 h, application rate 200 ppm, 5 days after infestation
Procedure: Example B3: Plutella xylostella (Diamond Back Moth)
24-well microtiter plates with artificial diet were treated with aqueous test solutions prepared from 10,000 ppm DMSO stock solutions by pipetting. After drying, the plates were infested with L2 larvae (10 to 15 per well). The samples were assessed for mortality 5 days after infestation.

[9] = system: Spodoptera littoralis (Egyptian Cotton Leaf Worm); test: Spodoptera littoralis systemic test, lettuce grown on treated agar, infested with eggs; assay type: in vivo; conditions: 144 h, test rate 12.5 ppm, assessed 6 days after infestation, in comparison to untreated samples, read-out: effect in at least one of the three categories (mortality, anti-feedancy, or growth inhibition)
From the text: Example B1: Spodoptera littoralis (Egyptian Cotton Leaf Worm)
Test compounds were applied by pipette from 10,000 ppm DMSO stock solutions into 24-well plates and mixed with agar. Lettuce seeds were placed on the agar and the multi well plate was closed by another plate which contains also agar. After 7 days the roots have absorbed the compound and the lettuce has grown into the lid plate. The lettuce leafs were now cut off into the lid plate. Spodoptera eggs were pipetted through a plastic stencil on a humid gel blotting paper and the plate closed with it. The samples were assessed for mortality, anti-feedant effect and growth inhibition in comparison to untreated samples 6 days after infestation.
The following compounds gave an effect of at least 80% in at least one of the three categories (mortality, anti-feedancy, or growth inhibition) at a test rate of 12.5 ppm: […]

[10] = application rate 200 ppm, 3 days after infestation
[11] = application rate 200 ppm, 5 days after infestation, in comparison to untreated samples

For `CCSc1cc(C(F)(F)F)nnc1-c1nc2cc(C(F)(F)F)cnc2n1C`, which melting point is on record?
The melting point was 149 to 150 °C and 149 to 156 °C.

Which melting point does the source give for `CCS(=O)(=O)c1cc(C(F)(F)F)nnc1-c1nc2cc(C(F)(F)F)cnc2n1C` here?
Its melting point is 172 to 174 °C.

For `CC1Cc2c(C(F)(F)F)ccc(-c3nc4cc(C(F)(F)F)cnc4n3C)c2S1(=O)=O` (stereo not shown), which melting point is on record?
Its melting point is 206 °C.

For `CCS(=O)(=O)c1nsnc1-c1nc2cc(C(F)(F)F)cnc2n1C`, which melting point is on record?
The melting point was 144 to 146 °C.

With `CCS(=O)(=O)c1cc(C(F)(F)F)cnc1-c1nc2nc(C(F)(F)F)cnc2n1C` as the compound, how does the melting point read?
Its melting point is 162 to 165 °C.

Which melting point does the source give for `CCSc1cc(C(F)(F)F)cnc1-c1nc2cc(Cl)nnc2n1C` here?
Its melting point is 156 to 158 °C.

Which melting point does the source give for `CCS(=O)(=O)c1cc(OC(F)F)cnc1-c1nc2cc(C(F)(F)F)ncc2n1C` here?
The melting point was 146 to 148 °C.

Which melting point does the source give for `CCS(=O)(=O)c1nc(C(F)(F)F)sc1-c1cn2ccc(C(F)(F)F)cc2n1` here?
The melting point was 126 to 128 °C.

Which melting point does the source give for `CCS(=O)(=O)c1nc(C(F)(F)F)ccc1-c1nc2cc3nc(C(F)(F)F)n(C)c3nc2n1C` here?
The melting point was 197 to 199 °C.

With `CCS(=O)(=O)c1nc(C(F)(F)F)ccc1-c1cn2ccc(C(F)(F)F)cc2n1` as the compound, how does the melting point read?
The melting point was 188 to 190 °C.

What does the source list for `CCS(=O)(=O)c1cc(C(F)(F)F)cnc1-c1nc2cc(Cl)nnc2n1C` [Compound V12.17, 3-chloro-6-[3-ethylsulfonyl-5-(trifluoromethyl)-2-pyridyl]-7-methyl-imidazo[4,5-c]pyridazine]?
mortality at 200 ppm [1]: ≥ 80%; mortality at 24 ppm [2]: ≥ 80%; mortality at 12 ppm [3]: ≥ 80%

Which mortality at 200 ppm [4] does the source give for `Cn1c(-c2ncc(C(F)(F)F)cc2S(C)(=O)=O)nc2cc(C(F)(F)F)ncc21` [Compound V12.18, 3-methyl-2-[3-methylsulfonyl-5-(trifluoromethyl)-2-pyridyl]-6-(trifluoromethyl)imidazo[4,5-c]pyridine] here?
Its mortality at 200 ppm is ≥ 80%.

What about the percent effect (mortality or growth inhibition) at 200 ppm [5] of the same compound?
Its percent effect (mortality or growth inhibition) at 200 ppm is ≥ 80%.

What about the mortality at 200 ppm [6] of the same compound?
Its mortality at 200 ppm is ≥ 80%.

Which mortality at 200 ppm [4, 10] does the source give for `CCS(=O)(=O)c1cc(C(F)(F)F)cnc1-c1nc2cc(Br)ncc2n1C` [Compound V12.20, 6-bromo-2-[3-ethylsulfonyl-5-(trifluoromethyl)-2-pyridyl]-3-methyl-imidazo[4,5-c]pyridine] here?
Its mortality at 200 ppm is ≥ 80%.

And the percent effect (mortality or growth inhibition) at 200 ppm [5, 11]?
The percent effect (mortality or growth inhibition) at 200 ppm was ≥ 80%.

And the mortality at 200 ppm [1]?
Its mortality at 200 ppm is ≥ 80%.

And the mortality at 24 ppm [2]?
Its mortality at 24 ppm is ≥ 80%.

And the mortality at 12 ppm [3]?
The mortality at 12 ppm was ≥ 80%.

And the mortality at 200 ppm [7]?
Its mortality at 200 ppm is ≥ 80%.

For `CCS(=O)(=O)c1scnc1-c1nc2cc(C(F)(F)F)ncc2n1C` [Compound V13.05, 5-ethylsulfonyl-4-[3-methyl-6-(trifluoromethyl)imidazo[4,5-c]pyridin-2-yl]thiazole], which mortality at 200 ppm [8] is on record?
Its mortality at 200 ppm is ≥ 80%.

What about the percent effect (mortality or growth inhibition) at 200 ppm [5, 11] of the same compound?
The percent effect (mortality or growth inhibition) at 200 ppm was ≥ 80%.

What about the mortality at 200 ppm [7] of the same compound?
The mortality at 200 ppm was ≥ 80%.

For `CCS(=O)(=O)c1nc(C(F)(F)F)sc1-c1nc2cc(C(F)(F)F)ncc2n1C` [Compound V14.05, 4-Ethylsulfonyl-5-[3-methyl-6-(trifluoromethyl)imidazo[4,5-c]pyridin-2-yl]-2-(trifluoromethyl)thiazole], which mortality at 200 ppm [1] is on record?
The mortality at 200 ppm was ≥ 80%.

What about the mortality at 24 ppm [2] of the same compound?
Its mortality at 24 ppm is ≥ 80%.

And the mortality at 12 ppm [3]?
The mortality at 12 ppm was ≥ 80%.

Which results are given for `CCS(=O)(=O)c1cc(C(F)(F)F)cnc1-c1nc2cc(C(F)(F)F)ncn2c1C` [Compound V16.01, 2-[3-ethylsulfonyl-5-(trifluoromethyl)-2-pyridyl]-3-methyl-7-(trifluoromethyl)imidazo[1,2-c]pyrimidine]?
percent effect (mortality, anti-feedancy or growth inhibition) at 12.5 ppm [9]: ≥ 80%; mortality at 200 ppm [4, 10]: ≥ 80%; mortality at 200 ppm [8]: ≥ 80%; mortality at 200 ppm [1]: ≥ 80%; mortality at 12 ppm [3]: ≥ 80%

For `CCS(=O)(=O)c1cc(C(F)(F)F)cnc1-c1cn2cnc(C(F)(F)F)cc2n1` [Compound V16.02, 2-[3-ethylsulfonyl-5-(trifluoromethyl)-2-pyridyl]-7-(trifluoromethyl)imidazo[1,2-c]pyrimidine], which percent effect (mortality, anti-feedancy or growth inhibition) at 12.5 ppm [9] is on record?
The percent effect (mortality, anti-feedancy or growth inhibition) at 12.5 ppm was ≥ 80%.

And the mortality at 200 ppm [4, 10]?
The mortality at 200 ppm was ≥ 80%.

And the mortality at 200 ppm [8]?
Its mortality at 200 ppm is ≥ 80%.

And the percent effect (mortality or growth inhibition) at 200 ppm [5, 11]?
Its percent effect (mortality or growth inhibition) at 200 ppm is ≥ 80%.

What about the mortality at 200 ppm [1] of the same compound?
The mortality at 200 ppm was ≥ 80%.

And the mortality at 200 ppm ([6]; application rate 200 ppm, 8 days after infestation)?
The mortality at 200 ppm was ≥ 80%.

Which mortality at 200 ppm [8] does the source give for `CCS(=O)(=O)c1cc(C(F)(F)F)cnc1-c1nc2cc(C(F)(F)F)ncn2n1` [Compound V16.03, 2-[3-ethylsulfonyl-5-(trifluoromethyl)-2-pyridyl]-7-(trifluoromethyl) [1,2,4]triazolo[1,5-c]pyrimidine] here?
Its mortality at 200 ppm is ≥ 80%.

And the percent effect (mortality or growth inhibition) at 200 ppm [5, 11]?
The percent effect (mortality or growth inhibition) at 200 ppm was ≥ 80%.

And the mortality at 200 ppm [1]?
The mortality at 200 ppm was ≥ 80%.

And the mortality at 24 ppm [2]?
Its mortality at 24 ppm is ≥ 80%.
